Measured values: publication PMC8766756, “Insights on Cancer Cell Inhibition, Subcellular Activities, and Kinase Profile of Phenylacetamides Pending 1H-Imidazol-5-One Variants” (Frontiers in Pharmacology, 2022)
Values joined by “and” are separate entries in the source; they are usually repeats but may differ in a detail not shown here. Equal values may be shown once.

Tests used:
Test in all cases: PamChip tyrosine kinase microarray
Format in all cases: biochemical
Conditions in all cases: 0.1 µM, HL60 lysate
[1] = target: T1, FmS/CSFR (P07333) (Homo sapiens, UniProt P07333)
T1 construct: purchased PamGene (PamChip PTK array, Upstream Kinase Analysis)
How it was run: (§1)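 HL60 (AML) cell lysate was spiked with compound at 0.001, 0.01, 0.1, 1, 10 and 50 µM, or 2% v/v DMSO as control, then profiled in technical replicates on a tyrosine kinase peptide array of 196 phosphosites. Kinase activity was inferred from peptide-set changes using an upstream kinase tool.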

[2] = target: T2, FGFR1 (P11362) (Homo sapiens, UniProt P11362)
T2 construct: purchased PamGene (PamChip PTK array, Upstream Kinase Analysis)
How it was run: as §1

[3] = target: T3, FRK (P42685) (Homo sapiens, UniProt P42685)
T3 construct: purchased PamGene (PamChip PTK array, Upstream Kinase Analysis)
How it was run: as §1

[4] = target: T4, EphA4 (P54764) (Homo sapiens, UniProt P54764)
T4 construct: purchased PamGene (PamChip PTK array, Upstream Kinase Analysis)
How it was run: as §1

[5] = target: T5, FGFR3 (P22607) (Homo sapiens, UniProt P22607)
T5 construct: purchased PamGene (PamChip PTK array, Upstream Kinase Analysis)
How it was run: as §1

[6] = target: T6, FLT4 (P35916) (Homo sapiens, UniProt P35916)
T6 construct: purchased PamGene (PamChip PTK array, Upstream Kinase Analysis)
How it was run: as §1

[7] = target: T7, IRR (P14616) (Homo sapiens, UniProt P14616)
T7 construct: purchased PamGene (PamChip PTK array, Upstream Kinase Analysis)
How it was run: as §1

[8] = target: T8, HER3 (P21860) (Homo sapiens, UniProt P21860)
T8 construct: purchased PamGene (PamChip PTK array, Upstream Kinase Analysis)
How it was run: as §1

[9] = target: T9, PDGFR[beta] (P09619) (Homo sapiens, UniProt P09619)
T9 construct: purchased PamGene (PamChip PTK array, Upstream Kinase Analysis)
How it was run: as §1

[10] = target: T10, Fes (P07332) (Homo sapiens, UniProt P07332)
T10 construct: purchased PamGene (PamChip PTK array, Upstream Kinase Analysis)
How it was run: as §1

[11] = target: T11, FLT1 (P17948) (Homo sapiens, UniProt P17948)
T11 construct: purchased PamGene (PamChip PTK array, Upstream Kinase Analysis)
How it was run: as §1

[12] = target: T12, Lyn (P07948) (Homo sapiens, UniProt P07948)
T12 construct: purchased PamGene (PamChip PTK array, Upstream Kinase Analysis)
How it was run: as §1

[13] = target: T13, Src (P12931) (Homo sapiens, UniProt P12931)
T13 construct: purchased PamGene (PamChip PTK array, Upstream Kinase Analysis)
How it was run: as §1

T11 sequence (P17948 27-1338): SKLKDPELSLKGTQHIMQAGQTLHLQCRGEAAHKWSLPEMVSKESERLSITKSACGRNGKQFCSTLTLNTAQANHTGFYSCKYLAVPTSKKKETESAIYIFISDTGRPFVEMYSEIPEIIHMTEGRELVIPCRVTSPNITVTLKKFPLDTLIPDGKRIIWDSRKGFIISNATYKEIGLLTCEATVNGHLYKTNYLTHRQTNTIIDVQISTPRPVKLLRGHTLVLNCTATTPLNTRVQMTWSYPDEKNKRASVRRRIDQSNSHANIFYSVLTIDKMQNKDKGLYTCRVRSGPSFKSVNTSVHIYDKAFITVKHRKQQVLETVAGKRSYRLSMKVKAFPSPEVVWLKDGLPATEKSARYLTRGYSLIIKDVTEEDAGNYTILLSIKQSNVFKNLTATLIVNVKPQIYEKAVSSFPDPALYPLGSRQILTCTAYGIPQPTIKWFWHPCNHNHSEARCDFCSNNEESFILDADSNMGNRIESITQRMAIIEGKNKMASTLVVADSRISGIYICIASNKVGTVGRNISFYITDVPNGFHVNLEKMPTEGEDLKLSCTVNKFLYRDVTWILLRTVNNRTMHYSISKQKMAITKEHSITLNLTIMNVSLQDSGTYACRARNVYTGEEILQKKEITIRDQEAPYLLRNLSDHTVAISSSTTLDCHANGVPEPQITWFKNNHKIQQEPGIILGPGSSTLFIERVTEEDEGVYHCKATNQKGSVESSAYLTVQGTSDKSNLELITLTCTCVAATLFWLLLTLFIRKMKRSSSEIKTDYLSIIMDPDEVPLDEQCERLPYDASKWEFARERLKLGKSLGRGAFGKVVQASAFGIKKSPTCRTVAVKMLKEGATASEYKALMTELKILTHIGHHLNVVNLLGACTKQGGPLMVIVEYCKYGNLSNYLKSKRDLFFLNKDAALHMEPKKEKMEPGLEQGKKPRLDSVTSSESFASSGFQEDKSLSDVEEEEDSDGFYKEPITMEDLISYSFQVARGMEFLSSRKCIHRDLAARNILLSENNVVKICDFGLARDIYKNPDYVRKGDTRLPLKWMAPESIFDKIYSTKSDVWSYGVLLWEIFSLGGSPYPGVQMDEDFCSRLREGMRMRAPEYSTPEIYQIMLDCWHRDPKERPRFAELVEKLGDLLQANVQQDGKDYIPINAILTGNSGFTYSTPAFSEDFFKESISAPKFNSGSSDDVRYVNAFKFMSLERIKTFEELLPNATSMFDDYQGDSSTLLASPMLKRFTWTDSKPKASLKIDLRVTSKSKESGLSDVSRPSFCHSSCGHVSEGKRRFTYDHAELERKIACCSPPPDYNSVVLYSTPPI
T13 sequence (P12931 whole entry): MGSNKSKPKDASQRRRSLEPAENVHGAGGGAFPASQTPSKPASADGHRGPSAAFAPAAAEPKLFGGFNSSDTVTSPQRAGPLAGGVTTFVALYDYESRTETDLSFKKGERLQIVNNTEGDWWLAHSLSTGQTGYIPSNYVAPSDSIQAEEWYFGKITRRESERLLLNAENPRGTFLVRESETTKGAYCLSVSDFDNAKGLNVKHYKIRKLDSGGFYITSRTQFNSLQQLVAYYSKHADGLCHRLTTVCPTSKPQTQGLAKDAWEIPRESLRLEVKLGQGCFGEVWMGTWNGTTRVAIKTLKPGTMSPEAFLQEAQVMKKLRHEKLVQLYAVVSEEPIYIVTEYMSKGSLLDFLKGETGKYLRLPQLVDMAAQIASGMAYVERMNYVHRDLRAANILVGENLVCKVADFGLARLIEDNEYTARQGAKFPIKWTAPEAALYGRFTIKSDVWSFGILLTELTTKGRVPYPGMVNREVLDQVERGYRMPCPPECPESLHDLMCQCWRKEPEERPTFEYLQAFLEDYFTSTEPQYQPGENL
T7 sequence (P14616 27-1297): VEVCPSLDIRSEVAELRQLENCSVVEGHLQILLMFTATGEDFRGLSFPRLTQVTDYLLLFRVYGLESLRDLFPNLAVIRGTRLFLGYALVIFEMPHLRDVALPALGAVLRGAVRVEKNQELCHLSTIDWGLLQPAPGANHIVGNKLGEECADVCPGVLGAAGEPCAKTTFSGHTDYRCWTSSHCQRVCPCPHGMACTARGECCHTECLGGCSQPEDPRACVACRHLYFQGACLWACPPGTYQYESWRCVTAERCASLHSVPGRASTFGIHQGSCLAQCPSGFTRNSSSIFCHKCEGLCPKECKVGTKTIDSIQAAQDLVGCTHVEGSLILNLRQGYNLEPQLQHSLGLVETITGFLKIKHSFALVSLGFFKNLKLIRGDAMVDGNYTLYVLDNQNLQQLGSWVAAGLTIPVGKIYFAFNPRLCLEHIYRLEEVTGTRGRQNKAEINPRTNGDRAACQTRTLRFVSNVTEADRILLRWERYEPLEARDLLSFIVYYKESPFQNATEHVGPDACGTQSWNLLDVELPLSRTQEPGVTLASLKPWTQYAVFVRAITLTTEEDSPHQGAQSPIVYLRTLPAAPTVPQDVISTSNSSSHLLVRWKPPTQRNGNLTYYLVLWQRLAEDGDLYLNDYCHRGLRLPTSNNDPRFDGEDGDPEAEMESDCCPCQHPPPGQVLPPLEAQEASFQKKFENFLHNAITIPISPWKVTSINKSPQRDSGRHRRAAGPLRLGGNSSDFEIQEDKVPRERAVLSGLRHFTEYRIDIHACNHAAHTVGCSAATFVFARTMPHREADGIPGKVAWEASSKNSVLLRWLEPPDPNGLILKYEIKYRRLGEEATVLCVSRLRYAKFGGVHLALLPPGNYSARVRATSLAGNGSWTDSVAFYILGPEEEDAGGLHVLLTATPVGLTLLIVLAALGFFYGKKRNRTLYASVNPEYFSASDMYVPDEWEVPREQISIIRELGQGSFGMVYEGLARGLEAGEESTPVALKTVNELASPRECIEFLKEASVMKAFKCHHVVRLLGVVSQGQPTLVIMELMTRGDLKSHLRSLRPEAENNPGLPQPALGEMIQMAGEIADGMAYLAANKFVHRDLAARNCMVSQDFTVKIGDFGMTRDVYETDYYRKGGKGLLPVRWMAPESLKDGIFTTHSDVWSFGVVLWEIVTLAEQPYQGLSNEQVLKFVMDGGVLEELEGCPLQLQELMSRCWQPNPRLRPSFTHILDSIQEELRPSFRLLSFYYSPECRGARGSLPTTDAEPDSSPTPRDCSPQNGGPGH
T12 sequence (P07948 whole entry): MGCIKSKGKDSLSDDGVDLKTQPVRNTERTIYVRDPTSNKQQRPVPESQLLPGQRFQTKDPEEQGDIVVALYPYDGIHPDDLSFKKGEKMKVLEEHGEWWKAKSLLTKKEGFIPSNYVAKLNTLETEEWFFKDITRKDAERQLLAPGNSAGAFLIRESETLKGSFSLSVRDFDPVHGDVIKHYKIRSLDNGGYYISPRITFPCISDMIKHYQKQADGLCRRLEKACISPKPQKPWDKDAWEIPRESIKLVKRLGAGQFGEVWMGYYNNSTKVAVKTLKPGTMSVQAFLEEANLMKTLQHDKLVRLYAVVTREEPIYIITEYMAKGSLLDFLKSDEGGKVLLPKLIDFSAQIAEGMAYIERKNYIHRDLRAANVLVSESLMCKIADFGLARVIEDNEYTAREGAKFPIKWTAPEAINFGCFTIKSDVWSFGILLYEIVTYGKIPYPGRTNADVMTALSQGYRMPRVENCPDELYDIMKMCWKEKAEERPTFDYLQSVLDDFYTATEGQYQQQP
T2 sequence (P11362 22-822): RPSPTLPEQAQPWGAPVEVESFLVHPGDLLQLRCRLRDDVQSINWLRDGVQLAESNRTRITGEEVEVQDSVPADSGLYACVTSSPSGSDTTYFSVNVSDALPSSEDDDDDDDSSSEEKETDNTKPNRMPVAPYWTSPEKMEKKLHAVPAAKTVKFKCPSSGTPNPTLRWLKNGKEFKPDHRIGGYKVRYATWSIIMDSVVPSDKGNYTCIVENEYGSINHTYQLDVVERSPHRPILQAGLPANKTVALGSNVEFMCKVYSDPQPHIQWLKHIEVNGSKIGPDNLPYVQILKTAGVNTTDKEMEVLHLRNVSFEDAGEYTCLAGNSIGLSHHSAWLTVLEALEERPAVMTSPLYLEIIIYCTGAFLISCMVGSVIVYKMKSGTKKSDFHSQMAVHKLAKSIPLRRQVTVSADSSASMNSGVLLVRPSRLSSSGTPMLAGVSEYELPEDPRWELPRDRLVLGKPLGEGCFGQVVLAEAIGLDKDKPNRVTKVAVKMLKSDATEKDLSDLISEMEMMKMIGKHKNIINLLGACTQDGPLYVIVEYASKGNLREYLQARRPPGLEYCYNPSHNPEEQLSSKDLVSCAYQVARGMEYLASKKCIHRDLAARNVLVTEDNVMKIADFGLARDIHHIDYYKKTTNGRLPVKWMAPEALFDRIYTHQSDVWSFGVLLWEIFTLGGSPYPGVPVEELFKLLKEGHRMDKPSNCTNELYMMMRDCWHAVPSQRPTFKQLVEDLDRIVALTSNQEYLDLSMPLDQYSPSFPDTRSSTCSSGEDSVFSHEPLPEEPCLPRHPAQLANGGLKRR
T3 sequence (P42685 whole entry): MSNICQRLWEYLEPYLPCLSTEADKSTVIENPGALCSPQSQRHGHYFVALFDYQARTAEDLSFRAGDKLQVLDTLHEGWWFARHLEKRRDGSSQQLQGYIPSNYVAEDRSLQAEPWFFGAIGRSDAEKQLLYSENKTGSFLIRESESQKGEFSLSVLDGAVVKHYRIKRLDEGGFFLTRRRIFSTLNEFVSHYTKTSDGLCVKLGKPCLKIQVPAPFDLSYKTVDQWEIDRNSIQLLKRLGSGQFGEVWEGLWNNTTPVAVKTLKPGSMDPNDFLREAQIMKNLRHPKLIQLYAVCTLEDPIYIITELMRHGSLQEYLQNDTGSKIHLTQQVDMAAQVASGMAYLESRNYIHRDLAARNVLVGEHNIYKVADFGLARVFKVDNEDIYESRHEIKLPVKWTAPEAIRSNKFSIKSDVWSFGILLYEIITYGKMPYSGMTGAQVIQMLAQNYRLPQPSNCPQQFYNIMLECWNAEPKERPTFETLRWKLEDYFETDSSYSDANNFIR

COc1ccc(/C=C2\N=C(C)N(c3ccc(CC(=O)NCc4ccccc4)cc3)C2=O)cc1 [Compound 4c, (Z)-N-Benzyl-2-(4-(4-(4-methoxybenzylidene)-2-methyl-5-oxo-4,5-dihydro-1H-imidazol-1-yl)phenyl)acetamide]
Mean Final score (Kinase score) [1]: 2.549
Mean Kinase Statistic [1]: -1.225
Mean Significance Score [1]: 2.048
Mean Specificity Score [1]: 0.582
Mean Final score (Kinase score) [2]: 1.92
Mean Kinase Statistic [2]: -0.994
Mean Significance Score [2]: 1.619
Mean Specificity Score [2]: 0.1511
Mean Significance Score [3]: 2.048
Mean Specificity Score [3]: 1.533
Mean Final score (Kinase score) ([3]; listed as KIM-161): 3.45 and 3.453
Mean Final score (Kinase score) [4]: 1.356
Mean Kinase Statistic [4]: -0.7819
Mean Significance Score [4]: 1.252
Mean Specificity Score [4]: 0.07789
Mean Final score (Kinase score) [5]: 2.271
Mean Kinase Statistic [5]: -1.175
Mean Significance Score [5]: 1.984
Mean Specificity Score [5]: 0.3218
Mean Significance Score [6]: 2.048
Mean Specificity Score [6]: 1.142
Mean Final score (Kinase score) ([6]; listed as KIM-161): 3.15 and 3.152
Mean Final score (Kinase score) [7]: 2.412
Mean Kinase Statistic [7]: -1.1771
Mean Significance Score [7]: 2.053
Mean Specificity Score [7]: 0.3184
Mean Final score (Kinase score) [8]: 2.412
Mean Kinase Statistic [8]: -1.214
Mean Significance Score [8]: 2.014
Mean Specificity Score [8]: 0.4279
Mean Final score (Kinase score) [9]: 2.559
Mean Kinase Statistic [9]: -1.304
Mean Significance Score [9]: 2.048
Mean Specificity Score [9]: 0.562
Mean Significance Score [10]: 2.048
Mean Specificity Score [10]: 1.058
Mean Final score (Kinase score) ([10]; listed as KIM-161): 3.13 and 3.128
Mean Significance Score [11]: 2.048
Mean Specificity Score [11]: 1.113
Mean Final score (Kinase score) ([11]; listed as KIM-161): 3.23 and 3.228
Mean Final score (Kinase score) [12]: 2.229
Mean Kinase Statistic [12]: -1.195
Mean Significance Score [12]: 1.851
Mean Specificity Score [12]: 0.3437
Mean Significance Score [13]: 2.048
Mean Specificity Score [13]: 0.05941
Mean Final score (Kinase score) ([13]; listed as KIM-161): 2.16 and 2.164
